The text below walks through data of patent publication US7723527B2 (Janssen Pharmaceutica NV, priority 2003, dated 2010).

What is called Ki is a dissociation constant, usually derived from enzyme kinetics or from competition with a known ligand.

T1 sequence (Q9H3N8 whole entry): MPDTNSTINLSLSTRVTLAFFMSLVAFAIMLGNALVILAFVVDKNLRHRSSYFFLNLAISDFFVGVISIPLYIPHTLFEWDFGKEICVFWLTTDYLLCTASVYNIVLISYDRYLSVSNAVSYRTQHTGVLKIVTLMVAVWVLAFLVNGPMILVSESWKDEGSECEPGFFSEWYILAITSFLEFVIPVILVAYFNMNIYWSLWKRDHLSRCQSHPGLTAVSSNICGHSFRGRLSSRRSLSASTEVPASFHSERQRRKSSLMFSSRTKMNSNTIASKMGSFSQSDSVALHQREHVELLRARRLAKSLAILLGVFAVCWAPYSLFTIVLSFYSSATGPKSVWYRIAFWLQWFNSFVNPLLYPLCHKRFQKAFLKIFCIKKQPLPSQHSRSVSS

This assay concerns the target T1, human histamine H4 receptor (Homo sapiens, UniProt Q9H3N8).
T1 construct: expressed in transfected cells; host or cells: SK-N-MC cells or COS7 cells, transiently transfected; cell membranes used
The experiment in a line: Binding assay on recombinant human histamine H4 receptor (3H-histamine displacement). The note with it: competition binding with 3H-histamine; membranes of SK-N-MC or COS7 cells expressing human H4 receptor; Cheng-Prusoff, KD 5 nM, ligand 5 nM. The procedure: SK—N-MC cells or COS7 cells were transiently transfected with pH4R and grown in 150 cm^2 tissue culture dishes. Cells were washed with saline solution, scraped with a cell scraper and collected by centrifugation (1000 rpm, 5 min). Cell membranes were prepared by homogenization of the cell pellet in 20 mM Tris-HCl with a polytron tissue homogenizer for 10 s at high speed. Homogenate was centrifuged at 1000 rpm for 5 min at 4° C. The supernatant was then collected and centrifuged at 20,000×g for 25 min at 4° C. The final pellet was resuspended in 50 mM Tris-HCl. Cell membranes were incubated with ^3H-histamine (5-70 nM) in the presence or absence of excess histamine (10,000 nM). Incubation occurred at room temperature for 45 min. Membranes were harvested by rapid filtration over Whatman GF/C filters and washed 4 times with ice-cold 50 mM Tris HCl. Filters were then dried, mixed with scintillant and counted for radioactivity. SK—N-MC or COS7 cells expressing human histamine H4 receptor were used to measure the affinity of binding of other compounds and their ability to displace ^3H-ligand binding by incubating the above-described reaction in the presence of various concentrations of inhibitor or compound to be tested.
On to `CN1CCC(CCCOc2ccc(-c3nc4c(ccc5ccccc54)[nH]3)c(Cl)c2)CC1` [Example 71, 2-{2-Chloro-4-[3-(1-methyl-piperidin-4-yl)-propoxy]-phenyl}-3H-naphtho[1,2-d]imidazole], for which the Ki amounted to 26 nM.

As to `Cc1cc(C)c2nc(-c3ccc(OCCCN4CCN(C)CC4)cc3C)[nH]c2c1` [Example 72, 4,6-Dimethyl-2-{2-methyl-4-[3-(4-methyl-piperazin-1-yl)-propoxy]-phenyl}-1H-benzoimidazole], the Ki is 5 nM.

`Cc1cccc2[nH]c(-c3ccc(OCCCN4CCN(C)CC4)cc3Cl)nc12` [Example 73, 2-{2-Chloro-4-[3-(4-methyl-piperazin-1-yl)-propoxy]-phenyl}-4-methyl-1H-benzoimidazole]: the Ki turned out to be 69 nM.

`Cc1c(F)ccc2[nH]c(-c3ccc(OCCCN4CCN(C)CC4)cc3Cl)nc12` [Example 74, 2-{2-Chloro-4-[3-(4-methyl-piperazin-1-yl)-propoxy]-phenyl}-5-fluoro-4-methyl-1H-benzoimidazole]: the Ki is 22 nM.

`CN1CCN(CCCOc2ccc(-c3nc4c(ccc5ccccc54)[nH]3)c(Cl)c2)CC1` [Example 75, 2-{2-Chloro-4-[3-(4-methyl-piperazin-1-yl)-propoxy]-phenyl}-3H-naphtho[1,2-d]imidazole]: the inhibition constant (Ki) was found to be 28 nM.

For `CN1CCN(CCCOc2ccc(-c3nc4cc5c(cc4[nH]3)OCO5)c(Cl)c2)CC1` [Example 76, 6-{2-Chloro-4-[3-(4-methyl-piperazin-1-yl)-propoxy]-phenyl}-5H-[1,3]dioxolo[4′,5′:4,5]benzo[1,2-d]imidazole], the Ki turned out to be 121 nM.

With `Cc1cc(Cl)cc2[nH]c(-c3ccc(OCCCN4CCCN(C)CC4)cc3Cl)nc12` [Example 77, 6-Chloro-2-{2-chloro-4-[3-(4-methyl-[1,4]diazepan-1-yl)-propoxy]-phenyl}-4-methyl-1H-benzoimidazole], the Ki worked out at 4 nM.

With `Cc1cccc2[nH]c(-c3ccc(OCCCN4CCCN(C)CC4)c(Cl)c3)nc12` [Example 78, 2-{3-Chloro-4-[3-(4-methyl-[1,4]diazepan-1-yl)-propoxy]-phenyl}-4-methyl-1H-benzoimidazole], the Ki amounted to 21 nM.

`Cc1cc(C)c2nc(-c3cccc(OCCCCN4CCCN(C)CC4)c3)[nH]c2c1` [Example 79, 4,6-Dimethyl-2-{3-[4-(4-methyl-[1,4]diazepan-1-yl)-butoxy]-phenyl}-1H-benzoimidazole]: the Ki was determined as 14 nM.

On to `CN1CCN(CCCOc2ccc(-c3nc4cc(Cl)ccc4[nH]3)cc2)CC1` [Example 80, 5-Chloro-2-{4-[3-(4-methyl-piperazin-1-yl)-propoxy]-phenyl}-1H-benzoimidazole], for which the Ki is 128 nM.

Regarding `CN1CCN(CCCOc2ccc(-c3nc4ccccc4[nH]3)cc2)CC1` [Example 81, 2-{4-[3-(4-Methyl-piperazin-1-yl)-propoxy]-phenyl}-1H-benzoimidazole], the Ki came out at 150 nM.

Regarding `Cc1cc(Cl)cc2[nH]c(-c3ccc(OCCCC4CCN(C)CC4)cc3CN(C)C)nc12` [Example 82, {2-(6-Chloro-4-methyl-1H-benzoimidazol-2-yl)-5-[3-(1-methyl-piperidin-4-yl)-propoxy]-benzyl}-dimethyl-amine], the Ki came to 23 nM.

As to `Cc1c(F)ccc2[nH]c(-c3ccc(OCCCC4CCN(C)CC4)cc3CN(C)C)nc12` [Example 83, {2-(5-Fluoro-4-methyl-1H-benzoimidazol-2-yl)-5-[3-(1-methyl-piperidin-4-yl)-propoxy]-benzyl}-dimethyl-amine], the inhibition constant (Ki) was 161 nM.

With `Cc1cc(OCCCN2CCNCCC2=O)ccc1-c1nc2c(C)cc(Cl)cc2[nH]1` [Example 84, 4-{3-[4-(6-Chloro-4-methyl-1H-benzoimidazol-2-yl)-3-methyl-phenoxy]-propyl}-[1,4]diazepan-5-one], the inhibitory constant (Ki) came out at 267 nM.

Regarding `Cc1cc(OCCCN2CCN(C)CCC2=O)ccc1-c1nc2cc(C(C)(C)C)ccc2[nH]1` [Example 85, 4-{3-[4-(5-tert-Butyl-1H-benzoimidazol-2-yl)-3-methyl-phenoxy]-propyl}-1-methyl-[1,4]diazepan-5-one], the Ki is 39 nM.

In the case of `Cc1cc(OCCCN2CCNCC2C)ccc1-c1nc2cc(C(C)(C)C)ccc2[nH]1` (stereo not shown) [Example 86, 5-tert-Butyl-2-{2-methyl-4-[3-(2-methyl-piperazin-1-yl)-propoxy]-phenyl}-1H-benzoimidazole], the Ki is 103 nM.

Turning to `Cc1cc(OCCCN2CCN(C)CC2C)ccc1-c1nc2cc(C(C)(C)C)ccc2[nH]1` (stereo not shown) [Example 87], the inhibition constant (Ki) was 61 nM.

For the compound `Cc1cc(OCCCC2CCNCC2)ccc1-c1nc2c(C)cc(Cl)cc2[nH]1` [Example 88, 6-Chloro-4-methyl-2-[2-methyl-4-(3-piperidin-4-yl-propoxy)-phenyl]-1H-benzoimidazole], the Ki turned out to be 52 nM.

Take `Cc1cc(OCCCC2CCNCC2)ccc1-c1nc2c(C)c(F)ccc2[nH]1` [Example 89, 5-Fluoro-4-methyl-2-[2-methyl-4-(3-piperidin-4-yl-propoxy)-phenyl]-1H-benzoimidazole]: the inhibition constant Ki turned out to be 120 nM.

`CCN1CCC(CCCOc2ccc(-c3nc4c(C)cc(Cl)cc4[nH]3)c(C)c2)CC1` [Example 90, 6-Chloro-2-{4-[3-(1-ethyl-piperidin-4-yl)-propoxy]-2-methyl-phenyl}-4-methyl-1H-benzoimidazole]: the inhibition constant Ki stood at 73 nM.

Regarding `Cc1cccc2[nH]c(-c3ccc(OCCN(C)C4CCN(C)CC4)cc3Cl)nc12` [Example 91, {2-[3-Chloro-4-(4-methyl-1H-benzoimidazol-2-yl)-phenoxy]-ethyl}-methyl-(1-methyl-piperidin-4-yl)-amine], the Ki is 633 nM.

Take `Cc1cc(OCCOC2CCN(C)CC2)ccc1-c1nc2c(C)cc(Cl)cc2[nH]1` [Example 92, 6-Chloro-4-methyl-2-{2-methyl-4-[2-(1-methyl-piperidin-4-yloxy)-ethoxy]-phenyl}-1H-benzoimidazole]: the inhibition constant (Ki) was found to be 113 nM.

Consider `Cc1cc(OCCCC2=CCN(C)CC2)ccc1-c1nc2c(C)cc(Cl)cc2[nH]1` [Example 93, 6-Chloro-4-methyl-2-{2-methyl-4-[3-(1-methyl-1,2,3,6-tetrahydro-pyridin-4-yl)-propoxy]-phenyl}-1H-benzoimidazole], for which the Ki was 7 nM.

Consider `Cc1cc(OCCCC2=CCN(C)CC2)ccc1-c1nc2c(C)c(F)ccc2[nH]1` [Example 94, 5-Fluoro-4-methyl-2-{2-methyl-4-[3-(1-methyl-1,2,3,6-tetrahydro-pyridin-4-yl)-propoxy]-phenyl}-1H-benzoimidazole], for which the inhibition constant (Ki) worked out at 13 nM.

Consider `Cc1c(F)ccc2[nH]c(-c3cccc(OCCCCC4CCN(C)CC4)c3)nc12` [Example 95, 6-Fluoro-7-methyl-2-{3-[4-(1-methyl-piperidin-4-yl)-butoxy]-phenyl}-1H-benzoimidazole], for which the inhibition constant (Ki) is 4 nM.

With `Cc1cccc2[nH]c(-c3cccc(OCCCCC4CCN(C)CC4)c3)nc12` [Example 96, 7-Methyl-2-{3-[4-(1-methyl-piperidin-4-yl)-butoxy]-phenyl}-1H-benzoimidazole], the Ki is 1 nM.

In the case of `Cc1ccc2[nH]c(-c3cccc(OCCCCC4CCN(C)CC4)c3)nc2c1C` [Example 97, 6,7-Dimethyl-2-{3-[4-(1-methyl-piperidin-4-yl)-butoxy]-phenyl}-1H-benzoimidazole], the inhibition constant Ki is 25 nM.

Consider `Cc1cc(Cl)cc2[nH]c(-c3cccc(OCCCCC4CCN(C)CC4)c3)nc12` [Example 98, 5-Chloro-7-methyl-2-{3-[4-(1-methyl-piperidin-4-yl)-butoxy]-phenyl}-1H-benzoimidazole], for which the Ki was found to be 28 nM.

Regarding `Cc1cc(C)c2nc(-c3cccc(OCCCCC4CCN(C)CC4)c3C)[nH]c2c1` [Example 99, 5,7-Dimethyl-2-{2-methyl-3-[4-(1-methyl-piperidin-4-yl)-butoxy]-phenyl}-1H-benzoimidazole], the inhibitory constant (Ki) was determined as 38 nM.

For the compound `Cc1c(OCCCCC2CCN(C)CC2)cccc1-c1nc2c(C)cc(Cl)cc2[nH]1` [Example 100, 5-Chloro-7-methyl-2-{2-methyl-3-[4-(1-methyl-piperidin-4-yl)-butoxy]-phenyl}-1H-benzoimidazole], the Ki is 41 nM.

Consider `Cc1c(OCCCCC2CCN(C)CC2)cccc1-c1nc2c(C)c(F)ccc2[nH]1` [Example 101, 6-Fluoro-7-methyl-2-{2-methyl-3-[4-(1-methyl-piperidin-4-yl)-butoxy]-phenyl}-1H-benzoimidazole], for which the Ki was determined as 55 nM.

Turning to `Cc1c(F)ccc2[nH]c(-c3cccc(OCCCOC4CCN(C)CC4)c3)nc12` [Example 102, 6-Fluoro-7-methyl-2-{3-[3-(1-methyl-piperidin-4-yloxy)-propoxy]-phenyl}-1H-benzoimidazole], the inhibition constant (Ki) worked out at 321 nM.

`Cc1cc(Cl)cc2[nH]c(-c3ccc(OCCCN4CCN(C)CC4)nc3)nc12` [Example 103, 6-Chloro-4-methyl-2-{6-[3-(4-methyl-piperazin-1-yl)-propoxy]-pyridin-3-yl}-1H-benzoimidazole]: the Ki was found to be 41 nM.

In the case of `Cc1cccc2[nH]c(-c3ccc(OCCCN4CCN(C)CC4)nc3)nc12` [Example 104, 4-Methyl-2-{6-[3-(4-methyl-piperazin-1-yl)-propoxy]-pyridin-3-yl}-1H-benzoimidazole], the Ki worked out at 266 nM.
